The source of these data is patent US8703758B2, “Bicyclic compound” (Takeda Pharmaceutical Company Limited, priority 2010, dated 2014).

The melting point is the temperature of the solid-liquid transition.

One data set addresses T1, human ACC2 (Homo sapiens, UniProt O00763).
T1 construct: His6 (from vector pFAST-BacHTa); made in house; host or cells: SF-9 insect cells, recombinant baculovirus BAC-ACC2 (Nd)
The experiment in a line: Measurement of ACC2 inhibitory activity (malachite green, recombinant ACC2 (Nd)). Format: biochemical. The following applies: read-out: ACC2 inhibitory rate (%). On the procedure:
The ACC2 inhibitory action of the compound of the present invention was evaluated by the following method.
(1) Cloning of Human ACC2 Gene and Preparation of Recombinant Baculovirus
Human ACC2 gene was cloned by PCR using a human skeletal muscle cDNA library (Clontech) as a template and Primer 1 and Primer 2 shown below. Primer 1 and Primer 2 were prepared by adding SalI, XbaI restriction enzyme recognition sequences based on the information of the base sequence of human ACC2 gene (Genbank Accession U89344).
PCR was performed using Pyrobest DNA polymerase (TAKARA BIO INC.). The obtained PCR product was cloned to pT7 Blue vector (Novagen) and after confirmation of the base sequence, digested with restriction enzymes SalI and XbaI. The obtained DNA fragment was inserted into pFAST-BacHTa (Invitrogen) digested with restriction enzymes SalI and XbaI to give expression plasmid ACC2/pFAST-BacHTa.
A plasmid for expression of ACC2 without a mitochondrial targeting sequence was prepared by PCR using the expression plasmid as a template, and Primer 3 (SalI restriction enzyme recognition sequence was added) and Primer 4 prepared by reference to the information of human ACC2 gene base sequence (Genbank Accession U89344).
PCR was performed using Pyrobest-DNA polymerase (TAKARA BIO INC.). The obtained PCR product was cloned to pT7 Blue vector (Novagen) and after confirmation of the base sequence, digested with restriction enzymes SalI and AflII. The obtained DNA fragment was inserted into ACC2/pFAST-BacHTa digested with restriction enzymes SalI and AflII to give expression plasmid ACC2mito7/pFAST-BacHTa.
Using the expression plasmid ACC2mito7/pFAST-BacHTa and BAC-TO-BAC Baculovirus Expression System (Invitrogen), virus stock BAC-ACC2 of recombinant Baculovirus (N terminal deleted (hereinafter Nd)) was prepared.
(2) Preparation of ACC2 (Nd) Protein
SF-9 cells (Invitrogen) were inoculated to a medium (2 L) for insect cells (Sf-900IISFM medium (Invitrogen) containing 10% fetal bovine serum (Trace), 50 mg/L Gentamicin (Invitrogen), 0.1% Pluronic F-68 (Invitrogen)) at 0.5×10^6 cells/mL, and cultured with shaking in Wave Bioreactor (Wave) at 27° C., 20 rpm, rocking angle 6°, oxygen concentration 30%.
On day 4 of the culture, 3 L of the medium for insect cells was added, the rocking angle was set to 8°, and the cells were further cultured. On day 5 of the culture, 100 mL of recombinant Baculovirus BAC-ACC2 (Nd) was added, 5 L of the medium for insect cells was further added, the rocking angle was set to 11°, and the cells were cultured for 3 days. The culture medium was centrifuged at 1000×g for 10 min to give virus-infected cells. The cells were washed with phosphate buffered saline (Invitrogen) and centrifuged under the same conditions. The obtained cells were cryopreserved at −80° C.
The cryopreserved cells were thawed in ice and suspended in 900 mL of 25 mM HEPES buffer (pH 7.5) containing 10% Glycerol, 0.13 M NaCl, 1 mM EDTA, 25 mM Sodium β-Glycerophosphate and 1 mM Sodium Orthovanadate, and supplemented with Complete Protease Inhibitor (Nippon Boehringer Ingelheim Co., Ltd.). The obtained suspension was homogenized three times in a polytron homogenizer (Kinematica) at 20,000 rpm for 30 sec. The obtained cell disruption solution was clarified by centrifugation at 31000×g for 60 min, and filtered through a 0.45 μm filter. The filtrate was passed through a column packed with 60 mL of Ni-NTA Super Flow Gel (QUIAGEN) at a flow rate of about 5 mL/min. The column was washed with buffer A (50 mM HEPES (pH 7.5) containing 0.3 M NaCl), further washed with buffer A containing 20 mM Imidazole, and eluted with buffer A containing 100 mM Imidazole. The eluate was concentrated with Vivaspin 20 (Vivascience) with a molecular weight cut off of 30K. The obtained concentrate was dialyzed against 50 mM HEPES (pH 7.5) containing 10 mM MgCl2, 2 mM Dithiothreitol, 10 mM Tripotassium Citrate and 0.3 M NaCl. The inner dialysate was filtered through a 0.22 μm filter to give ACC2 (Nd). […]

Data set [1] is described as follows: Body weight after 4 weeks of oral administration in rats on Western diet (anti-obesity action). The data set is classed as in vivo, rat. The following applies: male F344/Jcl rats; for body weight after administration for 4 weeks: Western diet, Mean ± S.D., N = 6. On the procedure: 6-week-old male F344/Jcl rats (CLEA Japan, Inc., Tokyo) were individually reared immediately after purchase and Western diet (D12079B, Research diet) was given. From the next day, an acclimation dosing (0.5% Methyl Cellulose, 5 mL/kg, oral administration) was started (once between 8:00 AM and 11:00 AM) and body weight and food consumption amount were appropriately measured. The rats with body weight and consumption amount extremely out of the average values in the acclimation dosing period were excluded. At the stage of 7-week-old, the body weight, food consumption amount, and body fat by Echo-MRI were measured, and the rats were grouped (6 per group) based on these measurement results. During 4 weeks of the test period, body weight was measured between 8:00 AM and 11:00 AM, and a solvent (0.5% Methyl Cellulose) or a test compound (0.5% Methyl Cellulose suspension) was consecutively administered by gavage at 5 mL/kg.
4 Weeks later, the body weight was measured in the morning. All values show mean±standard deviation and Williams' test and t-test were used for statistical analysis.

Data set [2] can be described thus: Respiratory quotient (RQ) measurement in rats on Western diet. Format: in vivo, rat. To be noted: 20 mg/kg by gavage, male F344/Jcl rats, Mean ± S.D., N = 5. On the procedure:
5-week-old male F344/Jcl rats (CLEA Japan, Inc., Tokyo) were acclimated to the rearing environment for 1 week after purchase and the diet was changed to Western diet (D12079B, Research diet). They were used for the experiment of Respiratory quotient (RQ) measurement at 8-week-old. For the RQ measurement experiment, the body weight was measured in the late afternoon (15:30-16:30) of the previous day and the morning (8:00-9:00) of the day, and the rats with high or low body weight increase were excluded. To the animals were administered by gavage 15 mL/kg of a liquid diet (F2LCW, Oriental Yeast Co., Ltd) prepared to a concentration of 4.95 g/15 mL (1.436 kcal/mL), and they were placed in an indirect calorimeter (Oxymax) chamber manufactured by Columbus Instruments, and RQ was recorded every 10 min. RQ values were confirmed about 1 hr after the start of the measurement and the animals were grouped (5 per group) such that a difference between groups would be small. For medication, a solvent (0.5% Methyl Cellulose, Wako Pure Chemical Industries, Ltd.) or a test compound (0.5% Methyl Cellulose suspension) was administered by gavage at 5 mL/kg. RQ was measured at 10 minute intervals from 0 to 3 hours after administration, and the average thereof was calculated. All values are shown in mean±standard deviation and statistical analysis was performed by the Dunnett-test.

T1 sequence (O00763 117-2458 limits assumed): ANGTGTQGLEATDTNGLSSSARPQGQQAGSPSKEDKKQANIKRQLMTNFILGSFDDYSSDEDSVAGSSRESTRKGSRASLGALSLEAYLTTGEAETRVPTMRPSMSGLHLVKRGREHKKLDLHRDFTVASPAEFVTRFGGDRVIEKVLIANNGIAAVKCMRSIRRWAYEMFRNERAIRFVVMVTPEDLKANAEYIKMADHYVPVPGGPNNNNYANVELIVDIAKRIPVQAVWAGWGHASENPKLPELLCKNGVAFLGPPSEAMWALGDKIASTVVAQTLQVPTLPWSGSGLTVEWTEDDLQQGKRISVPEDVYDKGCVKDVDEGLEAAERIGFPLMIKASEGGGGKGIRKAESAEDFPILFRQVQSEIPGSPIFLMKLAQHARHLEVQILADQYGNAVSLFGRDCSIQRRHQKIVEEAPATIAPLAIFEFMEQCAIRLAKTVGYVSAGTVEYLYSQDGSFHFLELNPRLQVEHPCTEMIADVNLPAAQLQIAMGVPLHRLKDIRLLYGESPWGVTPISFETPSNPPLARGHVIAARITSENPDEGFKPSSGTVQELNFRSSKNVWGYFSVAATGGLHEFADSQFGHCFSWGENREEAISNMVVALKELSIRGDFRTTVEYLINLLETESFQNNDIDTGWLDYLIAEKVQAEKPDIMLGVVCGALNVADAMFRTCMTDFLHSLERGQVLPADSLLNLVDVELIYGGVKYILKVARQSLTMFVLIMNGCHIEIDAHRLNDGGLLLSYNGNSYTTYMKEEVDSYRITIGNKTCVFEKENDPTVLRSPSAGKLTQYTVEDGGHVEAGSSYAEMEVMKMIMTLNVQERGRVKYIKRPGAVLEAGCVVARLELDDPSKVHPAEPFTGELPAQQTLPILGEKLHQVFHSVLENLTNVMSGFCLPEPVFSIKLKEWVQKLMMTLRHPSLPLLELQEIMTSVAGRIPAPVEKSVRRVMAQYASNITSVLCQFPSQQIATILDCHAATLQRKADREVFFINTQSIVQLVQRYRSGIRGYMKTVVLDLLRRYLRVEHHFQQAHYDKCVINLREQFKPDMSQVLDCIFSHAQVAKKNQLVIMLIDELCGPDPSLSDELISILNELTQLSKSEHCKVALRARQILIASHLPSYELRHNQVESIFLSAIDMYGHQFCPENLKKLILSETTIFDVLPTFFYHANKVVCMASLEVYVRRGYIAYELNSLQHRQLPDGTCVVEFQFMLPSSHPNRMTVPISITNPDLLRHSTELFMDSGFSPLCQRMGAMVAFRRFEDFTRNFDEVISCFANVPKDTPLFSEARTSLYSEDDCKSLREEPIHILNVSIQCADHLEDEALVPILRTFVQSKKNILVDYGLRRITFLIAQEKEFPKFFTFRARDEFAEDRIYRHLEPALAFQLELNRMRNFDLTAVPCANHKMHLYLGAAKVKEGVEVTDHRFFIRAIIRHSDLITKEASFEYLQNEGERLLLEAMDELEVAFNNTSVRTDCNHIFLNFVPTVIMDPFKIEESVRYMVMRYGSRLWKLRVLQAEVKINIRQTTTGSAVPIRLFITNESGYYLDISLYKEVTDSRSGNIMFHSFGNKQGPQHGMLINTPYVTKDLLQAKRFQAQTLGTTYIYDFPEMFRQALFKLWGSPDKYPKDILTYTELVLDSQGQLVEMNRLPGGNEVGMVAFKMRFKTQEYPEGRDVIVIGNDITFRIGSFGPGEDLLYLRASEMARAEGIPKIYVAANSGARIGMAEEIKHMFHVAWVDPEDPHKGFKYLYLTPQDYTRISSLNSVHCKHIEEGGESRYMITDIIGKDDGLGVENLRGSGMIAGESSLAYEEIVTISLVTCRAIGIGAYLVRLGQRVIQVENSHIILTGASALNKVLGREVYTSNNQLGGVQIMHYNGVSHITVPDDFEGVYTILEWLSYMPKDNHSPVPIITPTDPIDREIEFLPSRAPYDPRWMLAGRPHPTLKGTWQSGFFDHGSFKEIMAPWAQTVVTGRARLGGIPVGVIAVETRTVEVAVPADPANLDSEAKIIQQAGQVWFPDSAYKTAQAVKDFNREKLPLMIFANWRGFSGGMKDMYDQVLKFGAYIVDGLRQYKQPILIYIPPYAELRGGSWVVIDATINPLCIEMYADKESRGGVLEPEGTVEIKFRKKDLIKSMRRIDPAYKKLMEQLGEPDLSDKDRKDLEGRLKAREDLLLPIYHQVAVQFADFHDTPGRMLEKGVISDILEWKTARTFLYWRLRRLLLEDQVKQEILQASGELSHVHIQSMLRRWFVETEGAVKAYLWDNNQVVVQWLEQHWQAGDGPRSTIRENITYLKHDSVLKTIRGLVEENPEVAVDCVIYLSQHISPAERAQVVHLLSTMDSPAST

`CC(=O)NC(C)CCC1CCN(c2nc3ccc(OCC4CC4)cc3o2)CC1` (racemic) [Example 5, N-(3-{1-[6-(cyclopropylmethoxy)-1,3-benzoxazol-2-yl]piperidin-4-yl}-1-methylpropyl)acetamide] showed a melting point of 131 to 132 °C. For the same molecule, on human ACC2, the inhibition at 10 µM is 104%.

Consider `CC(=O)N[C@@H](C)COC1CCN(c2nc3ccc(OCC4CC4)cc3o2)CC1` [Example 1, N-[(1S)-2-({1-[6-(cyclopropylmethoxy)-1,3-benzoxazol-2-yl]piperidin-4-yl}oxy)-1-methylethyl]acetamide], for which the melting point was 122 to 123 °C. In data set [1] (20 mg/kg/day by gavage), the “comparison with control group (body weight after 4 weeks)” value (from here on “comparison with control group”) is recorded as −6.1% and the “body weight after administration for 4 weeks” value (from here on “body weight … for 4 weeks”) is recorded as 265.1 ± 7.2. In addition, the “average RQ of 0 to 3 hours after administration” value in data set [2] came out at 0.795 ± 0.013. Further, the inhibition at 10 µM at human ACC2 is 97%.

The molecule `CC(=O)N[C@@H](C)COC1CCN(c2nc3cc(OCC4CC4)ccc3o2)CC1` [Example 2, N-[(1S)-2-({1-[5-(cyclopropylmethoxy)-1,3-benzoxazol-2-yl]piperidin-4-yl}oxy)-1-methylethyl]acetamide] registered a melting point of 99 to 100 °C. Also, in data set [1] (10 mg/kg/day by gavage), the “comparison with control group” value is −5.4% and the “body weight … for 4 weeks” value came out at 267.2 ± 4.1. Further, in data set [1] (20 mg/kg/day by gavage), the “comparison with control group” value is −6.0% and the “body weight … for 4 weeks” value is 265.4 ± 10.8. Further, the “average RQ of 0 to 3 hours after administration” value in data set [2] worked out at 0.787 ± 0.019. At human ACC2, the inhibition at 10 µM was found to be 100%.

In the case of `CC(=O)N[C@@H](C)COC1CCN(c2nc3cc(OCC4CC4)ccc3s2)CC1` [Example 3, N-[(1S)-2-({1-[5-(cyclopropylmethoxy)-1,3-benzothiazol-2-yl]piperidin-4-yl}oxy)-1-methylethyl]acetamide], the inhibition at 10 µM on human ACC2 came to 104%.

In the case of `CC(COC1CCN(c2nc3ccc(OCC4CC4)cc3o2)CC1)Nc1ccon1` (stereo not drawn) [Example 4, N-[2-({1-[6-(cyclopropylmethoxy)-1,3-benzoxazol-2-yl]piperidin-4-yl}oxy)-1-methylethyl]isoxazol-3-amine], the inhibition at 10 µM on human ACC2 came to 100%.

The molecule `CC(=O)N[C@@H](C)CCC1CCN(c2nc3ccc(OCC4CC4)cc3o2)CC1` [Example 5a, N-[(1S)-(3-{1-[6-(cyclopropylmethoxy)-1,3-benzoxazol-2-yl]piperidin-4-yl}-1-methylpropyl)]acetamide] yielded a melting point of 138.2 to 138.4 °C. Also, the inhibition at 10 µM on human ACC2 came to 106%.

`CC(=O)N[C@@H](C)COC1CCN(c2nc3cc(OCC4CCC4)ccc3o2)CC1` [Example 6, N-[(1S)-2-({1-[5-(cyclobutylmethoxy)-1,3-benzoxazol-2-yl]piperidin-4-yl}oxy)-1-methylethyl]acetamide] showed a melting point of 109 to 110 °C. Further, the inhibition at 10 µM at human ACC2 is 98%.

In the case of `Cc1conc1NC(C)COC1CCN(c2nc3ccc(OCC4CC4)cc3o2)CC1` (stereo not drawn) [Example 7, N-[2-({1-[6-(cyclopropylmethoxy)-1,3-benzoxazol-2-yl]piperidin-4-yl}oxy)-1-methylethyl]-4-methylisoxazol-3-amine], the inhibition at 10 µM on human ACC2 stood at 100%.

Molecule `CC(=O)N[C@@H](C)COC1CCN(c2nc3ccc(OCC(C)C)cc3o2)CC1` [Example 33, N-[(1S)-1-methyl-2-({1-[6-(2-methylpropoxy)-1,3-benzoxazol-2-yl]piperidin-4-yl}oxy)ethyl]acetamide] came in with a melting point of 103 to 105 °C. On human ACC2, the inhibition at 10 µM is 99%.

Turning to `CC(=O)N[C@@H](C)COC1CCN(c2nc3ccc(OCC4CCC4)cc3o2)CC1` [Example 34, N-[(1S)-2-({1-[6-(cyclobutylmethoxy)-1,3-benzoxazol-2-yl]piperidin-4-yl}oxy)-1-methylethyl]acetamide], the inhibition at 10 µM on human ACC2 was 102%.

In the case of `CC(=O)N[C@@H](C)COC1CCN(c2nc3ccc(OCCC4CC4)cc3o2)CC1` [Example 35, N-[(1S)-2-({1-[6-(2-cyclopropylethoxy)-1,3-benzoxazol-2-yl]piperidin-4-yl}oxy)-1-methylethyl]acetamide], the melting point is 99.3 to 99.6 °C. Further, the inhibition at 10 µM on human ACC2 was 102%.

In turn, `CC(=O)NC(C)CO[C@H]1CC[C@H](c2cc3ccc(OCC4CC4)cc3o2)CC1` (stereo partly drawn) [Example 38, N-[2-({trans-4-[6-(cyclopropylmethoxy)-1-benzofuran-2-yl]cyclohexyl}oxy)-1-methylethyl]acetamide] had a melting point of 104 to 105 °C.

On to `CC(=O)NC(C)CO[C@H]1CC[C@H](c2nc3ccc(OCC4CC4)cc3o2)CC1` (stereo partly drawn) [Example 39, N-[2-({trans-4-[6-(cyclopropylmethoxy)-1,3-benzoxazol-2-yl]cyclohexyl}oxy)-1-methylethyl]acetamide], for which the melting point was 131 to 132 °C.

In turn, `CC(=O)N[C@@H](C)CO[C@H]1CC[C@H](n2cc3ccc(OCCC4CC4)cc3n2)CC1` [Example 40, N-[(1S)-2-({trans-4-[6-(2-cyclopropylethoxy)-2H-indazol-2-yl]cyclohexyl}oxy)-1-methylethyl]acetamide] displayed a melting point of 98 to 99 °C.

Take `CC(=O)NC(C)CC[C@H]1CC[C@H](n2cc3ccc(OCC4CC4)cc3n2)CC1` (stereo partly drawn) [Example 41, N-(3-{trans-4-[6-(cyclopropylmethoxy)-2H-indazol-2-yl]cyclohexyl}-1-methylpropyl)acetamide]: the melting point is 139 to 140 °C.
